Reference: patent US8853452B2, “Compounds, their syntheses, compositions, and methods to treat cancer” (The Administrators of the Tulane Educational Fund, priority 2009, dated 2014)

Key:
MCF-7 cells [1] = assay: Clonogenic survival assay; format: cell-based, Human
Protocol: (§1) Human cancer cell lines derived from breast, MCF-7, endocrine-resistant MDA-MB-231, and chemoresistant MCF-7TN-R were cultured in 75 cm^2 culture flasks in DMEM (Invitrogen, Co.) supplemented with 10% FBS (Life Technologies, Inc., Gaithersburg, Md.), basic minimum MEM essential (50×, Invitrogen Co.) and MEM non-essential (100×, Invitrogen, Co.) amino acids, sodium pyruvate (100× Invitrogen Co.), antimicotic-antibiotic (10,000 U/mL penicillin G sodium; 10,000 μg/mL streptomycin sulphate; 25 μg/mL amphotericin B as Fungizone®), and human recombinant insulin (4 mg/mL Invitrogen Co). Culture flasks were maintained in a tissue culture incubator in a humidified atmosphere of 5% CO2 and 95% air at 37° C.
(§2) MCF-7, MDA-MB-231, or MCF-7TN-R cells were plated in 6-well plates at 1000 cells per well. Twenty-four hours later, cells were treated with varying concentrations of the compound and then monitored microscopically for colony growth. Ten days later the cells were fixed with 3% glutaraldehyde. Following fixation for 15 min, the plates were washed and stained with a 0.4% solution of crystal violet in 20% methanol for 30 min, washed with PBS, and air-dried. Colonies of 30 cells were counted as positive. Results are normalized to percent clonogenic survival from untreated control cells. Statistical analysis of IC50 values were calculated from concentration-response curves using GraphPad Prism 5.0 (Graphpad Software, San Diego, Calif.), using with the equation: Y=Bottom+(Top−bottom)/1+10 Log EC50−X.
(§3) Compounds II-1, II-2, II-3, II-4, II-5, and II-6 were compared for their inhibitory effect on breast cancer clonogenic survival. Cells were treated with varying concentration of compound, ranging from 0.1 μM-20 μM for 10 days. […] At endpoint, cell colonies were fixed, stained and recorded as percent vehicle control.

MDA-MB-231 cells [2] = assay: Clonogenic survival assay; format: cell-based, Human; settings: Homo sapiens, MDA-MB-231, 240 h
Protocol: as §1, §2, §3

MCF-7TN-R cells [3] = assay: Clonogenic survival assay; format: cell-based, Human; settings: Homo sapiens, 240 h
Protocol: as §1, §2, §3

MCF-7 cells [4] = assay: Viability assay using MTT; format: cell-based; settings: Homo sapiens, MCF7, 24 h, compounds 0.1 to 100 μM, unit inferred, read-out: MCF-7 (IC50), Viability Assays
Protocol: as §1
(§4) The effect of ceramide and compounds on cell growth was determined using MTT viability assays. MCF-7, MDA-MB-231, or MCF-7TN-R cells were plated at […] cells per well in a 96-well plate in phenol-free DMEM supplemented with 5% FBS and allowed to adhere overnight. Cells were then treated with compounds I-1, I-2, I-3, or I-4 (ranging from 0.1 to 100 μM) for 24 h. Following that treatment, 20 μL of MTT (5 mg/ml) reagent was added to each well prior to incubation for 4 hr. Cells were then lysed with 20% SDS in 50% dimethylformamide. The pH and absorbances were read on an EL×808 Microtek plate reader (Winooski, Vt.) at 550 nm, with a reference wavelength of 630 nm.
(§5) Statistical analysis of IC50 values were calculated from concentration-response curves using GraphPad Prism 5.0 (Graphpad Software, San Diego, Calif.), using with the equation: Y=Bottom+(Top−bottom)/1+10 Log EC50−X assuming a standard slope, where the response goes from 10% to 90% of maximal as X increases over two log units. Differences in IC50 were compared using Student's unpaired t-test with p<0.05 as the limit of statistical significance. Experiments comparing multiple concentrations to the control were tested with one-way ANOVA with Bonferroni post-test to compare individual concentrations. All statistical analysis were done using GraphPad Prism 5.0. […].

MDA-MB-231 cells [5] = assay: Viability assay using MTT; format: cell-based; settings: Homo sapiens, 24 h, compounds 0.1 to 100 μM, unit inferred, read-out: MDA-MB-231 (IC50), Viability Assays
Protocol: as §1, §4, §5

MCF-7TN-R cells [6] = assay: Viability assay using MTT; format: cell-based; settings: Homo sapiens, 24 h, compounds 0.1 to 100 μM, unit inferred, read-out: MCF-7TN-R (IC50), Viability Assays
Protocol: as §1, §4, §5

MCF-7TN-R cells [7] = assay: Proliferation assay; format: cell-based; settings: Homo sapiens; Table 3; read-out: IC50 (μM), anti-proliferative in MCF-7TN-R cells
Protocol: The ability of compound II-3 to block proliferation as an anti-survival mechanism in addition to apoptosis was determined by measuring anti-proliferative effects.
Nineteen compounds were synthesized using fifteen benzaldehydes as starting material. […] These were tested as potential anti-proliferative agents in MCF-7TN-R cells, and the structure-activity relationships were studied using several parameters. […] In compounds containing a methyl group, a significant increase of the PAC (C) in o-substituted compound was detected, which may account for the increased anti-proliferation activity. Ortho-substituted analogs with electron withdrawing groups by induction can have beneficial effects, and PAC (C) can be a useful predictor of the structural property of the molecule.

[8] = Log K (structure-activity parameter); format: physicochemical
[9] = Homo sapiens, MCF7, 240 h, Table 1B, 10 days, read-out: MCF-7 (IC50), Clonogenic Survival Assays
[10] = Table 1B, 10 days, read-out: MDA-MB-231 (IC50), Clonogenic Survival Assays
[11] = Table 1B, 10 days, read-out: MCF-7TN-R (IC50), Clonogenic Survival Assays
[12] = Homo sapiens, MCF7, 240 h, Table 2, 0.1 μM-20 μM for 10 days, read-out: MCF-7 (IC50), clonogenic survival
[13] = Table 2, 0.1 μM-20 μM for 10 days, read-out: MDA-MB-231 (IC50), clonogenic survival
[14] = Table 2, 0.1 μM-20 μM for 10 days, read-out: MCF-7-TNR (IC50), clonogenic survival

Row | SMILES | IC50 (MCF-7 cells [4]) [µM] | IC50 (MDA-MB-231 cells [5]) [µM] | IC50 (MCF-7TN-R cells [6]) [µM] | IC50 (MCF-7 cells [1]; [9]) [µM] | IC50 (MDA-MB-231 cells [2]; [10]) [µM] | IC50 (MCF-7TN-R cells [3]; [11]) [µM] | IC50 (MCF-7 cells [1]; [12]) [µM] | IC50 (MDA-MB-231 cells [2]; [13]) [µM] | IC50 (MCF-7TN-R cells [3]; [14]) [µM] | other results
1 | CCCCCCCCCCCCC/C=C/[C@@H](O)[C@H](CO)NC(=O)C1CCCCC1 [Compound I-1, N-((2S,3R,E)-1,3-dihydroxyoctadec-4-en-2-yl)cyclohexanecarboxamide] | 22.6 | 5.4 | 2.4 | 1.5 | 1.6 | 0.7 | – | – | – | –
2 | CCCCCCCCCCCCC/C=C/[C@@H](O)[C@H](CO)NCc1ccccc1 [Compound I-2, (2S,3R,E)-2-(benzylamino)octadec-4-ene-1,3-diol] | 6.3 | 3.7 | 3 | 1.5 | 1.1 | 0.6 | – | – | – | –
3 | CCCCCCCCCCCCC/C=C/[C@@H](O)[C@H](CO)/N=C/c1ccccc1 [Compound I-3, (2S,3R,E)-2-((E)-benzylideneamino)octadec-4-ene-1,3-diol] | 9 | 4.8 | 3.6 | 1.7 | 1.4 | 0.1 | – | – | – | –
4 | CCCCCCCCCCCCC/C=C/[C@@H](O)[C@H](CO)NC(=O)C(C)(C)C [Compound I-4, N-((2S,3R,E)-1,3-dihydroxyoctadec-4-en-2-yl)pivalamide] | 13.5 | 8 | 4.2 | 1.5 | 0.5 | 0.6 | – | – | – | –
5 | CCCCCCCCCCCCCCNC(=O)[C@H](CO)NC(=O)C1CCCCC1 [II-1, (S)—N-(3-hydroxy-1-oxo-1-(tetradecylamino)propan-2-yl)cyclohexanecarboxamide] | – | – | – | – | – | – | 7.2 | 11.5 | 23.5 | –
6 | CCCCCCCCCCCCCCNC(=O)[C@H](CO)NCc1ccccc1 [II-2, (S)-2-(benzylamino)-3-hydroxy-N-tetradecylpropanamide] | – | – | – | – | – | – | 4.97 | 10.5 | 15.2 | IC50 (MCF-7 cells [1]; Table 2, 0.1 μM-20 μM for 10 days, read-out: MCF-7 (IC50), clonogenic survival): 5 µM
7 | CCCCCCCCCCCCCCNC(=O)[C@H](CO)NC(=O)C(C)(C)C [II-4, (S)-3-hydroxy-2-pivalamido-N-tetradecylpropanamide] | – | – | – | – | – | – | 6.7 | 6.1 | 11.1 | –
8 | CCCCCCCCCCCCCCNC(=O)[C@H](CO)NC(=O)c1cc(OC)cc(OC)c1 [II-5, (S)—N-(3-hydroxy-1-oxo-1-(tetradecylamino)propan-2-yl)-3,5-dimethoxybenzamide] | – | – | – | – | – | – | 11.2 | 6.6 | 15 | –
9 | CCCCCCCCCCCCCCNC(=O)[C@H](CO)NC(C)=O [II-6, (S)-2-acetamido-3-hydroxy-N-tetradecylpropanamide] | – | – | – | – | – | – | 44.7 | 75.1 | 52.7 | –
10 | CCCCCCCCCCCCCCNC(=O)[C@H](CO)N=Cc1ccc([N+](=O)[O-])cc1 [II-7, (S)-2-(4-nitrobenzylideneamino)-3-hydroxy-N-tetradecylpropanamide] | – | – | – | – | – | – | – | – | – | IC50 (MCF-7TN-R cells [7]): 216 µM; Log K [8]: 0.86
11 | CCCCCCCCCCCCCCNC(=O)[C@H](CO)N=Cc1cccc([N+](=O)[O-])c1 [II-8, (S)-2-(3-nitrobenzylideneamino)-3-hydroxy-N-tetradecylpropanamide] | – | – | – | – | – | – | – | – | – | IC50 (MCF-7TN-R cells [7]): 104 µM; Log K [8]: 0.86
12 | CCCCCCCCCCCCCCNC(=O)[C@H](CO)N=Cc1ccccc1[N+](=O)[O-] [II-9, (S)-2-(2-nitrobenzylideneamino)-3-hydroxy-N-tetradecylpropanamide] | – | – | – | – | – | – | – | – | – | IC50 (MCF-7TN-R cells [7]): 21.7 µM; Log K [8]: 0.88
